This note sets out measurements from publication PMC5352362, “Molecular and functional evaluation of a novel HIF inhibitor, benzopyranyl 1,2,3-triazole compound” (Oncotarget, 2016).

The test system of the assay is HIF-1 (5xHRE-Luc reporter in HEK-293 cells). Nature of the assay: Dual-luciferase HRE reporter assay under hypoxia. In kind it is cell-based. The following applies: Homo sapiens, HEK293, hypoxia 1% O2, 24 h, compared to hypoxic control, read-out: inhibition of hypoxia-induced HRE Luc reporter activity (HIF-1α transactivation). The procedure:
To identify active inhibitors of HIF-1α, a cell-based reporter assay was performed. HEK-293 cells were co-transfected with pGL3-5xHRE-Luc plasmid harboring five copies of hypoxia responsive element (HRE) from the VEGF gene promoter, and with pRL-SV40 encoding Renilla genes. The HRE-containing promoter of the HIF-1 target genes is regulated by HIF-1 activation. Transfected cells were treated with chemical compounds at 1 μM and were exposed to hypoxic conditions (1% O2) for 24 h, and then were assayed. Echinomycin (E), a well-known HIF-1α inhibitor, was used as a positive control. Compared to normoxic control conditions, hypoxia increased this luciferase reporter's activity by approximately three-fold.
Figure 1 Screening of 144 compounds from an in-house chemical library for inhibition of HIF-1 activity HEK-293 cells were co-transfected with luciferase reporter plasmids (pGL3-HRE-luciferase) and Renilla vector (pRL-SV40). Cells were exposed to hypoxic conditions in the presence or absence of chemicals for 24 h, and were then lysed for assays of luciferase activity. […]
HEK-293 cells were seeded onto 96-well plates at a density of 5 × 10^3 cells/well, and allowed to attach for 24 h. […] Firefly luminescence was measured using a microplate reader (Infinite M200 Pro, TECAN, Männedorf, Switzerland). […] Renilla luminescence was measured using a microplate reader. […]
A general note: In a reporter assay the amount or activity of a reporter protein is the signal.

SMILES strings stand for the structures.

In the case of `COc1ccc(-c2cn(CC3(C)C=Cc4cc([N+](=O)[O-])ccc4O3)nn2)cc1` (stereo not shown) [Compound 12, 4-(4-methoxyphenyl)-1-((2-methyl-6-nitro-2H-chromen-2-yl)methyl)-1H-1,2,3-triazole], the inhibition at 1 µM amounted to 50%.

The term inhibition denotes the share of the control response that was lost under treatment.
